We go through 6 compounds from patent publication US5314932A, “Antifouling coating and method for using same” (priority 1993, dated 1994).

Each structure is given as a SMILES string.

For series [1], the system named is nauplius stage larvae. In words: Toxicity Assay for Nauplius Larvae (naupliar toxicity). The following applies: for Naupliar Toxicity (LD50): lethal dose killing 50 percent of naupliar stage larvae, 100 kDa-filtered seawater, 28° C., approx. 15 h light and 9 h darkness, 1440 min; for LD50 compared with TBT, digoxigenin, and digoxin: nauplius stage larvae, comparison with known antifouling agents. The method, then:
(§1) Adult individuals of the acorn barnacle Balanus amphritrite Darwin were collected from the Duke University Marine Laboratory seawall in Beaufort, N.C. Collected specimens were crushed, and the nauplius stage larvae released therefrom were cultured to cyprid stage for cyprid-state assays according to the methods of Rittschof et al., J. Exp. Mar. Biol. Ecol. 82:131-146 (1984).
Toxicity assays were conducted by adding nauplius stage larvae to Falcon 50×9 mm polystyrene Petri dishes containing 5 ml of 100 kDa-filteredseawater. Experimental dishes received a dose of bufalin, cinobufatalin, TBT, digoxigenin, or digoxin. Doses receiving no test compound served as negative controls. The dishes were incubated at 28° C. under light for approximately 15 hours and in darkness for approximately 9 hours.
After incubation, the dishes were examined under a dissecting microscope to determine whether the larvae were alive or dead. […] The number of dead and living larvae was counted and recorded.
Data for toxicity assays performed on nauplius stage larvae is summarized in Table 1, which lists the lethal dose for each compound required to kill 50 percent of naupliar stage larvae in a sample (LD50).

The subject of series [2] is cyprid stage larvae. The format is in vivo, acorn barnacle Balanus amphritrite Darwin. The following applies: for EC50 compared with TBT, digoxigenin, and digoxin: cyprid stage larvae settlement, comparison in words; for Cyprid Settlement (ED50): dose which prevents settlement of 50 percent of cyprid stage larvae (EC50), three-day old cyprids, 100 kDa-filtered seawater (approx. 35 ppt), 28° C., approx. 15 h light and 9 h darkness. The method, then:
as §1
Settlement assays were performed as previously described by Rittschof et al., J. Chem. Ecol. 11:551-563 (1985). Three-day old cyprid larvae were added to Falcon 50×9 mm polystyrene petri dishes. Each dish contained 5 ml of 100 kDa-filtered seawater (approximately 35 ppt salinity). […] Doses were varied in an effort to determine inhibition levels. Dishes receiving no test compound served as negative controls. The number of replicate dishes used in each assay ranged from 2 to 4, depending on larval availability. The dishes were incubated at 28° C. under light for approximately 15 hours and in darkness for approximately 9 hours.
After incubation, the dishes were examined under a dissecting microscope to determine whether larvae were still alive. The larvae were then euthanized by the addition of several drops of 10 percent formalin. The numbers of attached and unattached larvae were then counted.
Settlement was calculated as the percentage of total larvae attached to the dish. Differences in the rate of settlement for test dishes versus controls were assessed for statistical significance through the use of a G test for independence described by Sokal et al., Biometry (Freeman & Co., San Francisco 1981).

As to `C[C@]12CC[C@H](O)C[C@H]1CC[C@@H]1[C@@H]2CC[C@]2(C)[C@@H](c3ccc(=O)oc3)CC[C@]12O` [Bufalin, 3,14-dihydroxybufa-20,22 dienolide], in series [1], the “Naupliar Toxicity (LD50)” value is listed as 27 ng/L; the “LD50 compared with TBT, digoxigenin, and digoxin” value (shortened to “LD50 compared with TBT”) is “much lower LD50 values than known antifouling agents TBT, digoxigenin, and digoxin”. For the same compound, in series [2], the “EC50 compared with TBT, digoxigenin, and digoxin” value (“EC50 compared with TBT” below) is “much lower EC50 values than TBT, digoxigenin, and digoxin”; the “Cyprid Settlement (ED50)” value was found to be 19 ng/L.
`CC(=O)O[C@H]1[C@H]2O[C@]23[C@@H]2CC[C@@H]4C[C@@H](O)CC[C@]4(C)[C@H]2CC[C@]3(C)[C@H]1c1ccc(=O)oc1` [Cinobufagin, 16-(acetyloxy)-14,15-epoxy-3 hydroxybufa-20,22-enolide]: in series [1], the “Naupliar Toxicity (LD50)” value stood at 37 ng/L; the “LD50 compared with TBT” value was “much lower LD50 values than known antifouling agents TBT, digoxigenin, and digoxin”. Besides, in series [2], the “EC50 compared with TBT” value was “much lower EC50 values than TBT, digoxigenin, and digoxin”; the “Cyprid Settlement (ED50)” value was 162 ng/L.
For `CC(=O)O[C@H]1[C@H]2O[C@]23[C@@H]2CC[C@]4(O)C[C@@H](O)CC[C@]4(C)[C@H]2CC[C@]3(C)[C@H]1c1ccc(=O)oc1` [Cinobufotalin, 16-(acetyloxy)-14,15-epoxy-3,5dihydroxybufa-20,22-enolide], in series [1], the “Naupliar Toxicity (LD50)” value amounted to 837 ng/L; the “LD50 compared with TBT” value is “much lower LD50 values than known antifouling agents TBT, digoxigenin, and digoxin”. In series [2], the “EC50 compared with TBT” value is “much lower EC50 values than TBT, digoxigenin, and digoxin”; the “Cyprid Settlement (ED50)” value is given as 2,600 ng/L.
As for `C[C@]12CC[C@H](O)C[C@H]1CC[C@@H]1[C@@H]2C[C@@H](O)[C@]2(C)[C@@H](C3=CC(=O)OC3)CC[C@]12O` [Digoxigenin, reference compound], in series [1], the “Naupliar Toxicity (LD50)” value is recorded as 3,720 ng/L. For the same compound, the “Cyprid Settlement (ED50)” value in series [2] is > 50,000 ng/L.
As for `C[C@H]1O[C@@H](O[C@H]2[C@@H](O)C[C@H](O[C@H]3[C@@H](O)C[C@H](O[C@H]4CC[C@@]5(C)[C@H](CC[C@@H]6[C@@H]5C[C@@H](O)[C@]5(C)[C@@H](C7=CC(=O)OC7)CC[C@]65O)C4)O[C@@H]3C)O[C@@H]2C)C[C@H](O)[C@@H]1O` [Digoxin, reference compound], the “Naupliar Toxicity (LD50)” value in series [1] is 5,450 ng/L. Also, the “Cyprid Settlement (ED50)” value in series [2] is 6,300 ng/L.
As to `CCC[CH2][Sn]([Cl])([CH2]CCC)[CH2]CCC` [TBT Chloride, tri-n-butyl tin chloride, reference compound], in series [1], the “Naupliar Toxicity (LD50)” value is ~3,400 ng/L.
